Where a SMILES comes first, the peptide text is derived from it. [ ]: non-standard residue; d: D form.
Legend:
[1] = tested on: Foxp3+ regulatory T cell (Treg) population; assay: quantification of regulatory T cells in lamina propria; type: in vivo, mice
Source text: Quantification of regulatory T cells. Lamina propria (LP) immune cells from the small intestine were isolated using lamina propria dissociation kit (Miltenyi Biotec) following the manufacturer's instruction. All antibodies and flow cytometry reagents were obtained from Thermo Fisher. We used FITC anti-CD4 (RM4-5), PE anti-Foxp3 (FJK-16s), PE-Cyanine 7 anti-GATA3 (TWAJ), APC anti ROR gamma t (AFKJS-9), APC-efluor780 anti-Helios (22F6) and e-fluor 450 anti-CD3 (17A2) antibodies. To block non-antigen specific binding of immunoglobulins and discriminate live from dead cells, LP cell suspensions were incubated with mouse BD Fc block (BD Biosciences) and e-fluor 506 fixable viability dye (Thermo Fisher) for 30 minutes on ice. For surface staining, the cells were incubated with antibodies for 25 min, washed and fixed in fixation/permeabilization solution (Thermo Fisher). After being washed with transcription factor wash buffer (Thermo Fisher), cells were stained intracellularly for 45 min at room temperature, washed, and resuspended in PBS. Samples were read in a FACs canto analyzer (BD Biosciences) and analyzed with FACs Diva software v 8.0 (BD Biosciences). Total LP cell numbers were quantified to calculate regulatory T cell ratios. Flow Jo v10 software was used for dot plots generation and final analysis.

[2] = tested on: cytokines/chemokines in liver tissue; assay: cytokines/chemokines in liver tissue by Luminex assay; type: in vivo, LDLr−/− mice
Source text: Interleukin-1β (IL-1β) is a proinflammatory cytokine central to the inflammatory response […] the interlukin-6 (IL-6) signaling pathway. […] In addition to IL-1β, a pathogenic role of IL-la in vascular inflammation and atherosclerosis has been described.

[3] = tested on: intestinal absorption of cholesterol; assay: fecal dual-isotope cholesterol absorption assay; type: in vivo, LDLr−/− mice; details: 180 μM in drinking water, 2-wk treatment, WD
Description: In vivo cholesterol absorption assay. This experiment was carried out courtesy of Carol S. Ryan, Debra J. Search, Ricardo A. Garcia, and David A. Gordon at Bristol Myers Squibb (Hopewell, N.J., USA). To assess the effects of c[wLwReQeR] (SEQ ID NO:11) on intestinal absorption of cholesterol, male LDLr^−/− mice (Jackson Laboratories) ranging from 8-10 weeks old were acclimated to single housing in standard solid bottom bedded cages for at least one week at BMS facilities. During the acclimation period, the mice were fed a chow diet ad libitum. At the start of the treatment period and for the duration of the study, mice were switched to high-fat, high-cholesterol Western diet (Research Diets D12108C) containing 1.25% cholesterol and 20% fat ad libitum. The peptide was administered in the drinking water ad libitum as a solution with 1% sucrose at 180 μM (˜35 mg/kg/day). […]
Following a 2-wk treatment period, cholesterol absorption was measured using a dual fecal isotope ratio method. […] Plasma (˜20 μl) was added to 5 ml of Opti-fluor Scintillation cocktail (Packard Bioscience #6013199) and counted on ^3H and ^14C channels to evaluate cholesterol efflux. Radioactivity in feces was analyzed as follows: for each animal, feces recovered over the 48 hours was dried overnight at 50° C. and 0.1 gram of dried feces was transferred to a glass tube. […]

[4] = tested on: mouse liver and ileum gene expression; assay: host gene expression (mouse RNA-seq, qPCR); type: in vivo, mice; details: peptide-treated WD animals
Description: Mouse RNA-seq sample preparation and sequencing. Mouse tissues were harvested after 2 weeks of treatment, stored in RNAlater, and snap-frozen. 20-30 mg of mouse tissue was used for RNA extraction with RNeasy Mini Kit (Qiagen) following the manufacturer's instructions. Ribosomal RNA was removed from total RNA with Ribo-Zero Gold rRNA removal kit (Illumina). Strand-specific RNA-seq libraries were constructed as described previously (Hainer et al., Genes Dev. 29, 362-378, 2015). Libraries with different barcodes were pooled and single-end sequencing (75 bp) was performed on an Illumina NextSeq at the Scripps Research Institute next generation sequencing core.
Mouse RNA sequencing data analysis. After ribosomal RNA sequences were removed, the RNA transcripts were quantified using RSEM. […] Enrichment of Gene Ontology terms and categories was performed with DAVID 6.8.
Quantitative real-time PCR. To validate selected gene expression results, qPCR reactions were carried out. Mouse livers were harvested two weeks after peptide treatment and total RNA was extracted using RNeasy Mini (Qiagen) following manufacturer's instructions. […]

[5] = wild-type and LDLr−/− mice fed a WD
[6] = liver tissue, WD-fed LDLr−/− mice, 4 weeks of treatment

Compound: CC(C)C[C@@H]1NC(=O)[C@@H](Cc2c[nH]c3ccccc23)NC(=O)[C@H](CCCNC(=N)N)NC(=O)[C@@H](CCC(=O)O)NC(=O)[C@H](CCC(N)=O)NC(=O)[C@@H](CCC(=O)O)NC(=O)[C@H](CCCNC(=N)N)NC(=O)[C@@H](Cc2c[nH]c3ccccc23)NC1=O [c[wLwReQeR]] (cyclo([dW]L[dW]R[dE]Q[dE]R))
- composition of Foxp3+ regulatory T cell (Treg) population [1]: significantly altered
- Helios+/RORγt+ Treg ratio [1, 5]: increased
- Helios+/Th17 ratio [1, 5]: increased
- several cytokine and chemokine levels, including IL-1β, IL-1α, IL-6, and TNF-α ([2]; liver tissue from WD animals, treated vs vehicle): significant reductions
- CCL2 (MCP-1) level [2, 6]: 470 ± 150 pg/g tissue
- CCL3 (MIP-1a) level [2, 6]: 200 ± 130 pg/g tissue
- CCL4 (MIP-1b) level [2, 6]: 3000 ± 1800 pg/g tissue
- CXCL10 (IP-10) level [2, 6]: 1200 ± 380 pg/g tissue
- Eotaxin level [2, 6]: 1200 ± 390 pg/g tissue
- G-CSF level [2, 6]: 380 ± 150 pg/g tissue
- GM-CSF level [2, 6]: 86 ± 37 pg/g tissue
- IFNg level [2, 6]: 37 ± 16 pg/g tissue
- IL1a level [2, 6]: 1100 ± 190 pg/g tissue
- IL1b level [2, 6]: 430 ± 100 pg/g tissue
- IL2 level [2, 6]: 80 ± 24 pg/g tissue
- IL3 level [2, 6]: 31 ± 15 pg/g tissue
- IL4 level [2, 6]: 13 ± 8.4 pg/g tissue
- IL6 level [2, 6]: 260 ± 55 pg/g tissue
- IL7 level [2, 6]: 230 ± 110 pg/g tissue
- IL9 level [2, 6]: 670 ± 160 pg/g tissue
- IL10 level [2, 6]: 160 ± 58 pg/g tissue
- IL13 level [2, 6]: 7.3 ± 5.9 pg/g tissue
- IL-12p40 level [2, 6]: 200 ± 78 pg/g tissue
- IL-12p70 level [2, 6]: 270 ± 140 pg/g tissue
- IL-15 level [2, 6]: 960 ± 370 pg/g tissue
- IL-17 level [2, 6]: 55 ± 16 pg/g tissue
- KC level [2, 6]: 190 ± 20 pg/g tissue
- LIF level [2, 6]: 7.1 ± 4 pg/g tissue
- LIX level [2, 6]: 290 ± 240 pg/g tissue
- M-CSF level [2, 6]: 200 ± 70 pg/g tissue
- MIG level [2, 6]: 1200 ± 650 pg/g tissue
- RANTES level [2, 6]: 71 ± 61 pg/g tissue
- TNFa level [2, 6]: 77 ± 21 pg/g tissue
- VEGF level [2, 6]: 8.2 ± 3.4 pg/g tissue
- absorption of dietary cholesterol [3]: did not reduce
- expression of cholesterol 7 alpha-hydroxylase (Cyp7a1) [4]: significantly increased

— patent US20220040255A1, “CHEMOTHERAPEUTIC REMODELING OF THE GUT MICROBIOME” (THE SCRIPPS RESEARCH INSTITUTE, priority 2018, published 2022)
